These results are taken from patent US8420776B2, “Ube2G2 binding domain in the ubiquitin ligase gp78 and methods of use thereof” (The United States of America, as Represented by the …, priority 2004, dated 2013).

Holding throughout (type): cell-based
For one experiment, the system named is ERAD substrate TCR-α. Nature of the experiment: TCR-α level in co-transfected cells. The settings on record: co-transfection with TCR-α. Here is the method:
(§1) Transfections of HT1080, NIH 3T3 and HEK 293T cells were carried out ˜24 hr after plating using Polyfect (Qiagen, Valencia, Calif.) and cells harvested after ˜48 hr. J558 cells were transfected by electroporation using Bio-rad GENE pulser II at settings of 250 v, 950uF. Vector without insert was used to equalize total plasmid. In most experiments 0.15 μg of pEGFP-C1 served as an internal control. For experiments not involving immunoprecipitation, 6×10^5 cells were plated in 6 well plates and cell lysis was with Mammalian Protein Extraction Reagent (Pierce). For immunoprecipitation, 2.4×10^6 cells were seeded in 100 mm dishes and cells were lysed in RIPA buffer (1×PBS, 1% Nonidet P40. 0.5% sodium deoxycholate, 0.1% SDS). Lysis buffers were supplemented with Protease Inhibitor Cocktail (Sigma) and 10 mM iodoacetamide. Supernatants were analyzed after a 10,000×g centrifugation using standard techniques for immunoprecipitation, SDS-PAGE, immunoblotting and ECL. Treatment of cells with MG132 (Sigma) was at 50 μM for eight hr. Cycloheximnide was used at 50 μg/ml. All cells were collected at the end of the six hr chase.
FIG. 9 depicts the stabilization of endogenous TCRα by the G2BD. TCR-α is a subunit of the T cell antigent receptor and an ERAD substrate. TCR-α was stabilized by the region implicated in Ube2G2 binding.
(§2) To test this, GFP fusions of either a minimal E2 binding domain (GFP-574-611) or a more extended region that includes the C-terminus of gp78 (GFP-574-643) were evaluated (FIG. 21A). […] To assess this further, the C-terminal region of gp78 was fused to the eight amino acid Flag tag. […] Mdm2 is a RING finger E3 for both itself and p53 that is neither an ERAD substrate nor known to utilize Ube2G2 as an E2. […] To establish with certainty that the effect observed with expression of the Ube2G2 binding site is a consequence of binding endogenous E2, and not due to other unanticipated effects, cells were co-transfected with increasing amounts of Ube2G2 (FIG. 21C, lanes 3 and 4). […] These findings clearly establish that the isolated E2 binding site has the potential to markedly alter ERAD of CD3-δ. To ensure the effect observed was not peculiar to one substrate, TCR-α was evaluated (FIG. 21D).

Experiment [1] relates to human multiple myeloma cells. Nature of the experiment: Ube2G2 binding site expression in human myeloma.
For the next experiment, the system named is ERAD substrate CD3-δ. Nature of the experiment: CD3-δ level in co-transfected cells by immunoblotting. As to conditions: co-transfection with CD3-δ, immunoblot. Here is the method: as §1
FIG. 7 depicts the stabilization of CD3-δ protein in cells transfected with the G2BD, but not with the G2BD with amino acids 579-584 (of SEQ ID NO:2) mutated. HEK 293T cells were transfected with the ERAD substrate CD3-δ along with the indicated GFP fusions of gp78. The left and right sides are two separate experiments.
as §2

The target in a further experiment is T1, endogenous Ube2G2 (Homo sapiens, UniProt P60604).
T1 construct: endogenous in cells; host or cells: HEK 293T
T1 sequence (P60604 1-165): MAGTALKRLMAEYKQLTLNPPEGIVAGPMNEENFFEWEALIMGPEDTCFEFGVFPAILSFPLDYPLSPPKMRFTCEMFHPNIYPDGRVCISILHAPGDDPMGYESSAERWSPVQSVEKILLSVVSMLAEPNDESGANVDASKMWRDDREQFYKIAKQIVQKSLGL
Nature of the experiment: Co-immunoprecipitation of endogenous Ube2G2 with GFP fusions in HEK 293T cells. As to conditions: anti-GFP IP. Here is the method: (§3) Transfections of HT1080, NIH 3T3 and HEK 293T cells were carried out ˜24 hr after plating using Polyfect (Qiagen, Valencia, Calif.) and cells harvested after ˜48 hr. J558 cells were transfected by electroporation using Bio-rad GENE pulser II at settings of 250 v, 950uF. Vector without insert was used to equalize total plasmid. In most experiments 0.15 μg of pEGFP-C1 served as an internal control. For experiments not involving immunoprecipitation, 6×10^5 cells were plated in 6 well plates and cell lysis was with Mammalian Protein Extraction Reagent (Pierce). […] Supernatants were analyzed after a 10,000×g centrifugation using standard techniques for immunoprecipitation, SDS-PAGE, immunoblotting and ECL. […]
(§4) FIG. 6 depicts the specific binding of gp78 residues 574-611 (of SEQ ID NO:2) to endogenous Ube2G2 in HEK 293T cells. Cells were transfected with plasmids encoding GFP fusions of the indicated regions of gp78, and co-immunoprecipitation was evaluated. […]
(§5) To determine the specificity of E2 binding in cells, GFP fusions encompassing the E2 binding region were expressed in cells, and co-immunoprecipitation of endogenous E2 was tested using antibodies raised specifically against Ube2g1, Ube2G2 and UbcH5B (FIG. 19B). […] In contrast, and consistent with the in vitro binding data in FIG. 18, no association with endogenous UbcH5B or Ube2g1 was detected (FIG. 19B third and fourth panels, left). […]

Another experiment addresses T2, endogenous Ube2g1 (Homo sapiens, UniProt P62253).
T2 construct: endogenous in cells; host or cells: HEK 293T
T2 sequence (P62253 1-170): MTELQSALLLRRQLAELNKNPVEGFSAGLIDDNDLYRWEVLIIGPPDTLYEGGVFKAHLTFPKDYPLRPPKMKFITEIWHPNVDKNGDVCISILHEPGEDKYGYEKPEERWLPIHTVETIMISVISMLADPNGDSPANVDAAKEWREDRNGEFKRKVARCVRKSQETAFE
Nature of the experiment: Co-immunoprecipitation of endogenous Ube2G1 with GFP fusions in HEK 293T cells. The settings on record: anti-GFP IP. Here is the method: as §3, §4, §5

Experiment [2] concerns J558 cells. Nature of the experiment: UPR markers in J558 myeloma cells expressing GFP fusions. How it is done: as §1
(§6) 24 hr after transfection with constructs encoding GFP or GFP fusion proteins, cells were stained with annexin V-PE (BD Pharmingen) and analyzed on a Beckman coulter XL. Data for J558 was average of three experiments, NIH 3T3 was from 2 experiments. Gates were set to analyze cells expressing GFP using 525 band-pass filter and evaluated for annexin V-PE staining using a 575 band-pass filter. To isolate cells expressing GFP, J558 cells were harvested 24 hr after transfection and sorted on a BD FACS Aria. Transfection efficiencies were 7-10%. 2×10^4 cells expressing GFP fusions were isolated.
Cells with active secretory pathways, such as myeloma, might be predicted to be particularly susceptible to ER stress. […] As with NIH 3T3 cells, expression of the Ube2G2 binding site in the well characterized myeloma cell line J558 led to increases in BiP and phospho-eIF2α.

For a further experiment, the target named is T3, endogenous UbcH5B (Homo sapiens, UniProt P62837).
T3 construct: endogenous in cells; host or cells: HEK 293T
Nature of the experiment: Co-immunoprecipitation of endogenous UbcH5B with GFP fusions in HEK 293T cells. The settings on record: anti-GFP IP. How it is done:
as §3, §4, §5

Experiment [3] has as its system J558 cells. Nature of the experiment: Annexin V staining by flow cytometry in J558 cells. The settings on record: 24 hours after transfection, vs GFP574-611E2-m2 or GFP alone.
Excerpt: as §6
(§7) This was verified by a rapid loss of GFP immunoreactivity from cells expressing GFP574-611 (FIG. 7C). To confirm that this is a consequence of apoptosis, cells were evaluated by flow cytometry 24 hours after transfection. This early point was chosen, as by 48 hours few cells expressing the GFP574-611 could be discerned microscopically. […] Thus, the isolated Ube2G2 binding site of gp78 initiates an UPR in cells and a program leading to apoptotic cell death preferentially in myeloma cells.
(In flow cytometry, cells or beads pass a laser one at a time.)

In experiment [4] the test system is NIH 3T3 cells. Nature of the experiment: UPR markers in NIH 3T3 cells expressing GFP fusions. Here is the method:
as §1
(§8) Similarly, an increase in phospho-eIF2α, which attenuates translation and is activated by PERK, was also observed. […] An effective UPR ultimately requires an increase in ERAD. However, the ectopic expression of the Ube2G2 binding site should create a block specifically at this point.

The subject of the next experiment is HeLA, U20S and HT1080. Nature of the experiment: Cell death in epithelial cancer and sarcoma cell lines.
Excerpt: as §8

In experiment [5] the test system is HEK 293T cells or NIH 3T3 cells. Nature of the experiment: Cell death by microscopy in HEK 293T or NIH 3T3 cells.
Excerpt: as §8

The subject of experiment [6] is J558 cells. Nature of the experiment: Loss of J558 cells expressing GFP fusions by microscopy. The settings on record: relative to GFP574-611E2-m2. Here is the method:
as §7

The subject of experiment [7] is NIH 3T3 cells. Nature of the experiment: Annexin V staining by flow cytometry in NIH 3T3 cells. As to conditions: 24 hours after transfection.
Excerpt: as §6, §7

T3 sequence (P62837 whole entry): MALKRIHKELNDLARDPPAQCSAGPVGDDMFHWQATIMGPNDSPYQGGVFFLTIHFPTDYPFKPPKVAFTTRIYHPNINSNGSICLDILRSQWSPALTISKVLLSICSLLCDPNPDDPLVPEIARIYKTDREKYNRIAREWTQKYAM

Turning to “GFP-574-611: N-terminal GFP fusion of gp78 residues 574-611, a minimal E2 binding domain (SADERQRMLVQRKDELLQQARKRFLNKSSEDDAASESF; listed as Homo sapiens)”, the “effect on TCR-α level (stabilization)” value in the experiment on ERAD substrate TCR-α (listed as G2BD) is listed as “stabilized”. For the same substance, the “effect on TCR-α level (stabilization)” value in the experiment on ERAD substrate TCR-α (listed as Ube2G2 binding site) is reported as “markedly stabilized TCR-α”. Moreover, in experiment [1], the “apoptosis in human myelomas” value is recorded as “leads to apoptosis”. The “effect on CD3-δ level (stabilization)” value in the experiment with ERAD substrate CD3-δ is on record as “dramatically stabilized CD3-δ”. Also, the “effect on CD3-δ level (stabilization)” value in the experiment on ERAD substrate CD3-δ (listed as 574-611) was “sufficient to stabilize CD3-δ”. The “co-immunoprecipitation of endogenous Ube2G2” value with endogenous Ube2G2 is “sufficient to co-immunoprecipitate endogenous Ube2G2”. In addition, in the experiment with endogenous Ube2g1, the “co-immunoprecipitation of endogenous Ube2G1” value is on record as “not co-immunoprecipitated”. Also, in the experiment with J558 cells [2], the BiP level entry is given as “increases”, the CHOP level entry was “marked increase”, the “GFP immunoreactivity over time” value was “rapid loss” and the phospho-eIF2α level result was “increases”. In addition, the “co-immunoprecipitation of endogenous UbcH5B” value with endogenous UbcH5B is “not co-immunoprecipitated”. The “annexin V staining (apoptosis marker)” value in the experiment with J558 cells [3] was “dramatic increase”. Besides, in the experiment with NIH 3T3 cells [4], the CHOP accumulation entry is on record as “no accumulation”, the “ER chaperone BiP level” value is “increase”, the phospho-eIF2α level entry is “increase” and the “total eIF2α level” value is “not significantly altered”. For the same substance, the “loss of GFP fusion relative to mutant form” value with NIH 3T3 cells [4] (GFP immunoblot) is given as “nor was there any discernable loss”. Further, the cell death entry in the experiment with HeLA, U20S and HT1080 is given as “lack of increased cell death”. Further, the “cell death by microscopy” value in [5] is listed as “no microscopic evidence of increased cell death”. In addition, the “loss of cells expressing the GFP fusion, by microscopy” value in the experiment with J558 cells [6] is given as “differential loss”. Besides, the “annexin V staining (apoptosis marker)” value in the experiment on NIH 3T3 cells [7] is “No significant increase”.
